The text below walks through data of patent US4008233A (priority 1972, dated 1977).

On the set-up of data set [1]: species or system male mice. The conditions noted are these: mouse, in vivo.
Details of data set [2]: species or system male white mice. The conditions noted are these: mouse, in vivo.
Another data set can be described thus: in vivo. The conditions noted are these: mouse.
On the set-up of data set [3]: species or system male rats (SIV; printed "rate"). The conditions noted are these: rat, in vivo.
Details of data set [4]: species or system male mice (NMRI). Particulars: in vivo.
Details of data set [5]: species or system mice and rats. The conditions noted are these: in vivo.

SMILES strings stand for the structures. Read-outs that look alike come from different tables or passages of the source. A value given as a limit tells only on which side of the number the result lay.

Regarding `CCOC(=O)[C@]1(c2ccccc2)C=C[C@@H](N2CCN(c3ccccc3)CC2)CC1` (relative stereo) [4r-(4'-Phenyl-piperazino-1')-1c-phenyl-1t-cyclohexene-(2)], the “Analgesia ED 50 Phenyl-p-Quinone Writhing Test” value in data set [1] (po) was more than 50.0 mg/kg. Besides, the “Reduction of Spontaneous Motility by % Photocage” value (from here on “Reduction … by % Photocage”) is recorded as 34% in data set [2] (10 mg/kg) and “no effect” in data set [2] (sc, 5 mg/kg). In addition, in “in vivo” (po), the LD50 – broadly, the dose at which mortality reaches 50% – at 48 h was approximately 1600 mg/kg. Also, the “Decrease in Body Temperature in ° C” value in data set [3] (200 mg/kg) was -1.7 °C.

For `CCOC(=O)[C@]1(c2ccccc2)C=C[C@@H](N2CCC(c3ccccc3)CC2)CC1` (relative stereo) [4r-(4'-Phenyl-piperidino-1')-1c-phenyl-1t-ethoxycarbonyl-cyclohexene-(2)], the “Analgesia ED 50 Phenyl-p-Quinone Writhing Test” value in data set [1] (po) is on record as “ca. 75.0 mg/kg”. Also, the “Reduction … by % Photocage” value in data set [2] (100 mg/kg) came out at 79%. The “Aggressive Mouse ED 50” value in data set [4] was “no effect”. Also, the LD50 at 48 h in the data set “in vivo” (po) stood at 850 mg/kg. Moreover, the “Decrease in Body Temperature in ° C” value in data set [3] is given as “no effect”.

On to `CCOC(=O)[C@]1(c2ccccc2)C=C[C@@H](N2CCCCC2)CC1` (relative stereo) [4r-(Piperidino-1')-1c-phenyl-1t-ethoxycarbonyl-cyclohexene-(2)], for which, in data set [1] (sc), the “Analgesia ED 50 Phenyl-p-Quinone Writhing Test” value is given as more than 20.0 mg/kg. Besides, in data set [2] (sc, 40 mg/kg), the “Reduction … by % Photocage” value is listed as 11%. Further, the “Aggressive Mouse ED 50” value in data set [4] (sc) was “no effect”. The LD50 at 48 h in the data set “in vivo” (sc) came out at 390 mg/kg. For the same molecule, the “Decrease in Body Temperature in ° C” value in data set [3] (sc, 50 mg/kg) was -0.1 °C.

On to `CCOC(=O)[C@]1(c2ccccc2)C=C[C@@H](N(C)C)CC1` (relative stereo) [4r-Dimethyl-amino-1c-phenyl-1t-ethoxycarbonyl-cyclohexene-(2)], for which the figures for the “Analgesia ED 50 Phenyl-p-Quinone Writhing Test” value in data set [1] (po) and in data set [1] (sc) were 118.0 mg/kg and 14.6 mg/kg, respectively. Moreover, the “Reduction … by % Photocage” value came to 0% in data set [2] (sc, 5 mg/kg) and 25% in data set [2] (sc, 20 mg/kg). Further, the “Aggressive Mouse ED 50” value in data set [4] (sc) was “no effect”. The LD50 at 48 h was determined as 490 mg/kg in the data set “in vivo” (po) and 136 mg/kg in “in vivo” (sc). In data set [3] (sc), the “Decrease in Body Temperature in ° C” value is recorded as “no effect”.

For `CCOC(=O)[C@]1(c2ccccc2)C=C[C@@H](N2CCN(c3ccccc3OC)CC2)CC1` (relative stereo) [4r-[4'-(2-Methoxy-phenyl)piperazino-1']-1c-phenyl-1t-ethoxycarbonyl-cyclohexene-(2)], the “Analgesia ED 50 Phenyl-p-Quinone Writhing Test” value in data set [1] (po) is listed as more than 150.00 mg/kg. In data set [2] (50 mg/kg), the “Reduction … by % Photocage” value is 17%. In addition, the LD50 at 48 h in “in vivo” (po) is more than 1600 mg/kg.

Regarding `CCOC(=O)[C@]1(c2ccccc2)C=C[C@H](N(C)C)CC1` (relative stereo) [Example 1, 4r-Dimethylamino-1t-phenyl-1c-ethoxycarbonyl-cyclohexene-(2)], in data set [1], the “Analgesic potency/activity (in words)” value was “more potent analgesics than (±)-3r-dimethylamino-4c-phenyl-4t-ethoxycarbonyl-cyclohexene-(1) (Valoron ^R), a positional isomer of the former and Dolantin ^R”. Also, the “Analgesia ED 50 Phenyl-p-Quinone Writhing Test” value in data set [1] (po) stood at 13.6 mg/kg; in data set [1] (sc), 3.0 mg/kg. Moreover, the “Reduction … by % Photocage” value in data set [2] (sc, 5 mg/kg) was 38%; in data set [2] (sc, 10 mg/kg), 82%. Further, the “Aggressive Mouse ED 50” value in data set [4] (sc, 30 min) is on record as 4.0 mg/kg. Also, the LD50 at 48 h in “in vivo” (po) came to 297 mg/kg; in the data set “in vivo” (sc), 155 mg/kg. Further, the “Decrease in Body Temperature in ° C” value in data set [3] (sc, 20 mg/kg) was -1.4 °C.

As for `CCOC(=O)[C@]1(c2ccccc2)C=C[C@H](N2CCCCC2)CC1` (relative stereo) [Example 2, 4r-(Piperidino-1')-1t-phenyl-1c-ethoxycarbonyl-cyclohexene-(2)], the “Analgesia ED 50 Phenyl-p-Quinone Writhing Test” value in data set [1] (sc) came out at 5.3 mg/kg. Besides, the “Reduction … by % Photocage” value in data set [2] (sc, 10 mg/kg) worked out at 93%. Besides, in data set [4] (sc, 30 min), the “Aggressive Mouse ED 50” value was 8.0 mg/kg. For the same molecule, the LD50 at 48 h in the data set “in vivo” (sc) stood at 150 mg/kg. In addition, the “Decrease in Body Temperature in ° C” value in data set [3] (sc, 25 mg/kg) is -1.6 °C.

For `CCOC(=O)[C@]1(c2ccccc2)C=C[C@H](N2CCC(c3ccccc3)CC2)CC1` (relative stereo) [Example 3, 4r-(4'-Phenylpiperidino-1')-1t-phenyl-1c-ethoxycarbonylcyclohexene-(2)], the “Analgesia ED 50 Phenyl-p-Quinone Writhing Test” value in data set [1] (po) was found to be 10.0 mg/kg. In addition, the “Reduction … by % Photocage” value in data set [2] (25 mg/kg) amounted to 91%. Also, the “Aggressive Mouse ED 50” value in data set [4] (po, 30 min) is on record as 30 mg/kg. The molecule further gave an LD50 at 48 h in “in vivo” (po) of 800 mg/kg. In addition, the “Decrease in Body Temperature in ° C” value in data set [3] (50 mg/kg) is -0.5 °C.

Take `CCOC(=O)[C@]1(c2ccccc2)C=C[C@H](N2CCN(c3ccccc3OC)CC2)CC1` (relative stereo) [Example 4, 4r-[4'-(2-Methoxyphenyl)piperazino-1']-1t-phenyl-1c-ethoxycarbonyl-cyclohexene-(2)]: the “Analgesia ED 50 Phenyl-p-Quinone Writhing Test” value in data set [1] (po) turned out to be 50.0 mg/kg. Moreover, the “Reduction … by % Photocage” value in data set [2] (50 mg/kg) was 86%. The molecule also displayed an LD50 at 48 h in “in vivo” (po) of approximately 2000 mg/kg.

Consider `CCOC(=O)[C@]1(c2ccccc2)C=C[C@H](N2CCN(c3ccccc3)CC2)CC1` (relative stereo) [Example 5, 4r-(4'-Phenylpiperazino-1')-1t-phenyl-1c-ethoxycarbonylcyclohexene-(2)], for which, in data set [1] (po), the “Analgesia ED 50 Phenyl-p-Quinone Writhing Test” value is given as 25.0 mg/kg. Further, the “Reduction … by % Photocage” value was found to be 59% in data set [2] (10 mg/kg); 94% in data set [2] (50 mg/kg); 71% in data set [2] (sc, 5 mg/kg). Moreover, the “Aggressive Mouse ED 50” value in data set [4] (po, 30 min) is 25 mg/kg. Moreover, the LD50 at 48 h in the data set “in vivo” (po) was determined as 1600 mg/kg. For the same molecule, in data set [3] (100 mg/kg), the “Decrease in Body Temperature in ° C” value is -2.6 °C.

Regarding `CCOC(=O)C1(c2ccccc2)CCN(C)CC1` [Dolantin, Ethyl 1-methyl 4-phenyl-piperidin-4-carboxylate], the “Analgesia ED 50 Phenyl-p-Quinone Writhing Test” value in data set [1] (po) worked out at 28.5 mg/kg; in data set [1] (sc), 6.3 mg/kg. In addition, the “Neuroleptic activity (in words)” value in data set [5] is listed as “no significant neuroleptic activity”. Besides, the “Reduction … by % Photocage” value in data set [2] is recorded as “no effect”; in data set [2] (sc, 15 mg/kg), 30%. For the same molecule, the “Aggressive Mouse ED 50” value in data set [4] is “no effect”; in data set [4] (sc, 30 min), more than 15 mg/kg. Also, the LD50 at 48 h in “in vivo” (po) is 252 mg/kg; in “in vivo” (sc) it was 154 mg/kg. In addition, the “Decrease in Body Temperature in ° C” value in data set [3] and in data set [3] (sc) was “no effect” in each case.
